Experiments:
[1] = Inhibition of CXCR4-mediated chemotaxis in SDF1-stimulated human U937 cells treated 15 mins before SDF1 challenge measured after 2 hrs by luminescence assay
[2] = Inhibition of HIV1 HXB2 gp120-mediated viral infusion into HEK293 cells after 24 hrs by luciferase reporter gene assay in presence of 45 mg/ml human serum albumin
[3] = Inhibition of HIV1 HXB2 gp120-mediated viral infusion into HEK293 cells after 24 hrs by luciferase reporter gene assay

IC50 [1]: 340 pM
IC50 [2]: 1710 pM
IC50 [3]: 560 pM
SMILES: CN1CCN(c2cccc3nc(CN(C)[C@H]4CCCc5cccnc54)c(CO)n23)CC1 [([5-(4-Methyl-1-piperazinyl)-2-({methyl[(8S)-5,6,7,8-tetrahydro-8-quinolinyl]amino}methyl)imidazo[1,2-a]pyridin-3-yl]methanol)]

Reference: BindingDB's records for doi:10.1128/AAC.01293-09 (Glaxosmithkline, 2010)
